Here are results for five molecules from patent publication US20080038728A1, “Quadruple Transformed Cell Line Useful for the Identification of Transport Inhibitors” (priority 2004, published 2008).

Series [1] relates to OATP1B1, OATP1B3, and OATP2B1. Briefly: Uptake (intracellular accumulation) kinetics in ABCC2/OATP1B1/1B3/2B1 quadruple-transfected MDCKII cells. The format is in vitro ADME, human. As to conditions: human, pH 7.3, cell line ABCC2-OATP1B1/1B3/2B1 (quadruple-transfectant); intracellular accumulation of 3H-labeled substrate; read-out: Km. As for the experimental part:
(§1) (a) MDCKII cells were grown on ThinCerts (24-mm diameter, pore size 0.4 μm, pore density 1×10^8 per cm^2) and induced with butyrate as mentioned above. The cells were washed in prewarmed (37° C.) transport buffer (142 mM NaCl, 5 mM KCl, 1 mM KH2PO4, 1.2 mM MgSO4, 1.5 mM CaCl2, 5 mM glucose, and 12.5 mM HEPES, pH 7.3). The ^3H-labeled substrate was dissolved in transport buffer and added either to the apical or to the basolateral compartment at the concentration indicated. After incubation at 37° C., the radioactivity in the opposite compartment was measured by sampling aliquots from the apical or basolateral compartment. Cells were washed 2 times with ice-cold transport buffer containing 0.5% bovine serum albumin and 3 times in ice-cold transport buffer. Intracellular accumulation of radioactivity was calculated by lyzing the cells with 0.2% sodium dodecyl sulfate (SDS) and measuring the radioactivity in the lysate.

The target of series [2] is T1, ABCC2 (Homo sapiens, UniProt Q92887). The following applies: MDCK. Here is the method: ATP-dependent transport into inside-out membrane vesicles prepared from MDCKII-ABCC2 single-transfectants (ABCC2, closed circles) or vector-transfected MDCKII cells (Control, open circles) was measured for 1, 3, and 5 min as described in Example 1. Data are means ±SD determined from 3 measurements.
Transport of estrone 3-sulfate into inside-out membrane vesicles was performed using nick spin columns as described (Keppler et al., 1998). Membrane vesicles were prepared from MDCKII vector-transfected control cells and MDCKII-ABCC2 single transfected cells described by Cui et al. (1999) and Letschert et al. (2005). ATP-dependent transport was determined by subtracting values obtained in the presence of 5′-AMP from those in the presence of ATP.

The next series addresses T2, OATP1B3 (Homo sapiens, UniProt Q9NPD5).
T2 sequence (Q9NPD5 1-702): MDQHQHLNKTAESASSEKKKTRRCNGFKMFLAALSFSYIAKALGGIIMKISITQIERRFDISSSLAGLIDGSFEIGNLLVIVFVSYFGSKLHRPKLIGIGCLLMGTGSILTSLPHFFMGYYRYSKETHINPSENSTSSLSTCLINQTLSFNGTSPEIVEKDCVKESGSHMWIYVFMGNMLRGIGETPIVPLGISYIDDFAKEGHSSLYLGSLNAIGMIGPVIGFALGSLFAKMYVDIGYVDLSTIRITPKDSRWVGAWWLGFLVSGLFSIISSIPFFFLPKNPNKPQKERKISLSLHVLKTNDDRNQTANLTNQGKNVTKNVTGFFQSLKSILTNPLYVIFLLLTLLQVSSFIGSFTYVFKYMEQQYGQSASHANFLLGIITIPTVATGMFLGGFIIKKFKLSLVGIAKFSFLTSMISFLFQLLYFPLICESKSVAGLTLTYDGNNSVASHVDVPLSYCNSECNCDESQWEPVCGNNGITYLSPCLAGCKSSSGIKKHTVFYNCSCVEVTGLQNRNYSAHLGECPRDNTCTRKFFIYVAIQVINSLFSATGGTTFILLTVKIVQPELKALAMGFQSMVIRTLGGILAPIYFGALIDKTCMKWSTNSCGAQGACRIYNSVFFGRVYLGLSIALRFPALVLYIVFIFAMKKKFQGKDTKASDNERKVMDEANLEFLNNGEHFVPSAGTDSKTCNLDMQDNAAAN
Briefly: Uptake (intracellular accumulation) kinetics in ABCC2/OATP1B3 double-transfected MDCKII cells. The format is in vitro ADME. Details: expressed in transfected cells; host or cells: MDCKII (canine kidney), co-expressing ABCC2. As to conditions: cell line ABCC2-OATP1B3, intracellular accumulation of 3H-labeled substrate. As for the experimental part:
as §1

For another series, the target named is T3, OATP2B1 (Homo sapiens, UniProt O94956).
T3 sequence (O94956 1-709): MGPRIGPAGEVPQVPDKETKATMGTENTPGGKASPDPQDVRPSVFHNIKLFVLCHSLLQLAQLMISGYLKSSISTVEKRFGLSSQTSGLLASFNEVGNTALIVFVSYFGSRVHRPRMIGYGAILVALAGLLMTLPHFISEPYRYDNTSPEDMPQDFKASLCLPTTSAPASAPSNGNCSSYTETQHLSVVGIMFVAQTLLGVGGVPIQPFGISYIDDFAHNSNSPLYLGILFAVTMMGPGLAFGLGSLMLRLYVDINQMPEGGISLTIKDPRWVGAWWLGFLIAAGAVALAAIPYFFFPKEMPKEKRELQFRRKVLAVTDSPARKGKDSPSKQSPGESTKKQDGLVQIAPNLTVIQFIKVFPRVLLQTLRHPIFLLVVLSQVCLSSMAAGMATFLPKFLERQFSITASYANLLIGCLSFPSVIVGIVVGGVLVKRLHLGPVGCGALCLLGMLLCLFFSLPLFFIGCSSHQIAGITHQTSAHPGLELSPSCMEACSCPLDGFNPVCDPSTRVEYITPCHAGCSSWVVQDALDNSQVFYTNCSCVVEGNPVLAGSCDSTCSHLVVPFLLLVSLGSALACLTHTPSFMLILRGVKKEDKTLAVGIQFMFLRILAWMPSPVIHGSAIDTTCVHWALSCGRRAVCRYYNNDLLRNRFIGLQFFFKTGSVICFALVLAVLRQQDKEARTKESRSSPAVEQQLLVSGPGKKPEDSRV
Put plainly: Uptake (intracellular accumulation) kinetics in ABCC2/OATP2B1 double-transfected MDCKII cells. Details: expressed in transfected cells; host or cells: MDCKII (canine kidney) ABCC2 single-transfectant, further transfected with pcDNA3.1/Hygro(-)-OATP2B1. The format is in vitro ADME. The following applies: human, MDCKII cells double-transfected with ABCC2 and OATP2B1, pH 7.3; cell line ABCC2-OATP2B1; intracellular accumulation of 3H-labeled substrate; 5-min uptake. As for the experimental part:
as §1, with “The cells were washed in prewarmed (37° C.) transport buffer (142 mM NaCl, 5 mM KCl, 1 mM KH2PO4, 1.2 mM MgSO4, 1.5 mM CaCl2, 5 mM glucose, and 12.5 mM HEPES, pH 7.3).” left out

For series [3], the system named is ABCC2 together with OATP1B1, OATP1B3, and OATP2B1. Put plainly: Transport studies (transcellular transport, intracellular accumulation) in all double- and quadruple-transfected MDCKII cells. As to conditions: all 3 double-transfected and quadruple-transfected MDCKII cells, 5 μM BSP 15 min, 1 μM E3S, 0.5 μM Fluva in basolateral compartment. The format is in vitro ADME, human. As for the experimental part:
as §1
(b) Transport assays were further carried out as described in Cui et al., Mol. Pharmacol. 60 (2001), 934-43. The apical localization of MRP2 and the basolateral expression of OATP1B1, OATP1B3 and OATP2B1 in the quadruple transfectants was shown by the generation of polar proliferation of the cells after initial growing on Transwell membrane inserts (24 mm diameter, […] pore size, Corning Costar) and by use of confocal laser scanning microscopy. […]

Series [4] concerns the target T1, ABCC2. More on the design: expressed in transfected cells; host or cells: MDCKII-ABCC2 single-transfected cells (membrane vesicles). The following applies: BSP: Cui et al., 2001; CCK-8: Letschert et al., 2005; cited from earlier work.
Substrate in series [5]: CC(C)n1c(/C=C/C(O)CC(O)CC(=O)O)c(-c2ccc(F)cc2)c2ccccc21
Put plainly: cells, lysate or membranes named. The following applies: intracellular accumulation of 3H-labeled substrate, 5-min uptake, pH 7.3, 37.0 °C.

Substrate in series [6]: O=C1OC(c2ccc(O)c(S(=O)(=O)O)c2)(c2ccc(O)c(S(=O)(=O)O)c2)c2c(Br)c(Br)c(Br)c(Br)c21
Briefly: Uptake (intracellular accumulation) kinetics in ABCC2/OATP1B1 double-transfected MDCKII cells. The following applies: other: cell line ABCC2-OATP1B1; intracellular accumulation of 3H-labeled substrate; 5-min uptake; pH 7.3; 37.0 °C. It counts as in vitro ADME, human.

Substrate in series [7]: O=C1OC(c2ccc(O)c(S(=O)(=O)O)c2)(c2ccc(O)c(S(=O)(=O)O)c2)c2c(Br)c(Br)c(Br)c(Br)c21
Put plainly: Uptake (intracellular accumulation) kinetics in ABCC2/OATP2B1 double-transfected MDCKII cells. The format is in vitro ADME, human. The following applies: other: cell line ABCC2-OATP2B1; intracellular accumulation of 3H-labeled substrate; 5-min uptake; pH 7.3; 37.0 °C.

T1 sequence (Q92887 whole entry): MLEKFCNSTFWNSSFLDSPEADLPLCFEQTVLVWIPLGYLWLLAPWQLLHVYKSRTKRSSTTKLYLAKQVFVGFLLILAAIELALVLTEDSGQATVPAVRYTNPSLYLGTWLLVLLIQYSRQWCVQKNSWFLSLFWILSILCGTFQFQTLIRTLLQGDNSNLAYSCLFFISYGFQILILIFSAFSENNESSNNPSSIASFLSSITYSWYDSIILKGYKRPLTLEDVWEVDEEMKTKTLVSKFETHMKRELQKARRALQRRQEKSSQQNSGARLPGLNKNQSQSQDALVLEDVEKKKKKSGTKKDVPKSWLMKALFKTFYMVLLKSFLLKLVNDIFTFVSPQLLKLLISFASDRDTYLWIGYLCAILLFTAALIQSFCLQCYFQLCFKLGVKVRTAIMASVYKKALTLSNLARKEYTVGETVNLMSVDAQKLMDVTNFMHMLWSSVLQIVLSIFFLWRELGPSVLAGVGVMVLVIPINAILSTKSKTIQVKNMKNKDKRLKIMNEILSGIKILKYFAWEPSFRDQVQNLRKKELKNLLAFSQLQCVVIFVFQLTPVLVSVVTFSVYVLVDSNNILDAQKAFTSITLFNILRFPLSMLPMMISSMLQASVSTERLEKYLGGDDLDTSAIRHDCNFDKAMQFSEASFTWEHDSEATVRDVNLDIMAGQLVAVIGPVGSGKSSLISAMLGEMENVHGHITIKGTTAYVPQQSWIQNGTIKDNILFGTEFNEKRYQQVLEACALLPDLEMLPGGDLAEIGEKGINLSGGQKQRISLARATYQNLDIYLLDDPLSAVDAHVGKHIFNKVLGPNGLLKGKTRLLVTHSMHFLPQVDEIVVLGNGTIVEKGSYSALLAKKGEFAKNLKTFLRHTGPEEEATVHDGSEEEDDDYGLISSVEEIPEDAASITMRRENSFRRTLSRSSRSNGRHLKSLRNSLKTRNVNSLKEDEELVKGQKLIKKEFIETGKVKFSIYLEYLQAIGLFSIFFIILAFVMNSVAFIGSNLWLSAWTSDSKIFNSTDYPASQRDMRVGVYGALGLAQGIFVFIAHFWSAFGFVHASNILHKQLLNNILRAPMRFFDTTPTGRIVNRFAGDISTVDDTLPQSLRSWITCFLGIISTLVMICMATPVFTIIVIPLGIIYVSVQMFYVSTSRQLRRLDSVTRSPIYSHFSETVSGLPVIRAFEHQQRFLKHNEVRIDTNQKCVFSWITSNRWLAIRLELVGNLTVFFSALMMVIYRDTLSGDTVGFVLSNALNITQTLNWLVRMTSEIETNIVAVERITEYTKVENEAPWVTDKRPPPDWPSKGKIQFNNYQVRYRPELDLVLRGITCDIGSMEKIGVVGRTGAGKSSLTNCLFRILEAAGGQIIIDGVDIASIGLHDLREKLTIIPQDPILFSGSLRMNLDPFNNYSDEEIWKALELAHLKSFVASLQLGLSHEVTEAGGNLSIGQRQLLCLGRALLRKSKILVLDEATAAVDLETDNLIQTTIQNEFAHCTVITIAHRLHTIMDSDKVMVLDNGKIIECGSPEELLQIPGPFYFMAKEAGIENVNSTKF

By Km is commonly meant the substrate concentration at which the rate is half of its maximum. In the case of `CC(C)n1c(/C=C/C(O)CC(O)CC(=O)O)c(-c2ccc(F)cc2)c2ccccc21` (stereo not shown) [Fluvastatin, fluvastatin], the Michaelis constant (Km) in series [1] worked out at 2.3 µM. In addition, the “substrate for ABCC2” value at ABCC2 [2] (human) was “not a substrate for ABCC2”. Moreover, the Vmax on OATP1B3 is 53.6 ± 11.0 pmol · mg protein^−1 · min^−1. Also, the Km at 5 min at OATP1B3 (human, MDCKII cells double-transfected with ABCC2 and OATP1B3, pH 7.3, 5-min uptake, read-out: Km) came out at 7 ± 2.5 µM; at OATP2B1, 0.7 µM.
Turning to `C[C@]12CC[C@@H]3c4ccc(OS(=O)(=O)O)cc4CC[C@H]3[C@@H]1CCC2=O` [estrone 3-sulfate], the “transcellular (vectorial) transport, basolateral to apical” value in series [3] was “transported transcellularly”; in series [3] (listed as [^3H]estrone 3-sulfate), “detected”. At ABCC2 [2], the “ABCC2-mediated transport in the presence of ATP, enhanced compared to controls” value turned out to be 3.1 fold.
For the molecule cholecystokinin-8 sulfate [CCK-8], the Km on ABCC2 [4] is 8.1 µM.

B1: OATP1B1 (Homo sapiens) (protein)
chain: MDQNQHLNKTAEAQPSENKKTRYCNGLKMFLAALSLSFIAKTLGAIIMKSSIIHIERRFEISSSLVGFIDGSFEIGNLLVIVFVSYFGSKLHRPKLIGIGCFIMGIGGVLTALPHFFMGYYRYSKETNINSSENSTSTLSTCLINQILSLNRASPEIVGKGCLKESGSYMWIYVFMGNMLRGIGETPIVPLGLSYIDDFAKEGHSSLYLGILNAIAMIGPIIGFTLGSLFSKMYVDIGYVDLSTIRITPTDSRWVGAWWLNFLVSGLFSIISSIPFFFLPQTPNKPQKERKASLSLHVLETNDEKDQTANLTNQGKNITKNVTGFFQSFKSILTNPLYVMFVLLTLLQVSSYIGAFTYVFKYVEQQYGQPSSKANILLGVITIPIFASGMFLGGYIIKKFKLNTVGIAKFSCFTAVMSLSFYLLYFFILCENKSVAGLTMTYDGNNPVTSHRDVPLSYCNSDCNCDESQWEPVCGNNGITYISPCLAGCKSSSGNKKPIVFYNCSCLEVTGLQNRNYSAHLGECPRDDACTRKFYFFVAIQVLNLFFSALGGTSHVMLIVKIVQPELKSLALGFHSMVIRALGGILAPIYFGALIDTTCIKWSTNNCGTRGSCRTYNSTSFSRVYLGLSSMLRVSSLVLYIILIYAMKKKYQEKDINASENGSVMDEANLESLNKNKHFVPSAGADSETHC
notes: expressed in transfected cells; host or cells: MDCKII (canine kidney), co-expressing ABCC2
In the case of B1, the Km in [5] (other: cell line ABCC2-OATP1B1) was determined as 2.4 ± 0.9 µM; in [6] it was 2.4 µM. For the same molecule, the Vmax in [5] (other: cell line ABCC2-OATP1B1) is listed as 43.4 ± 6.7 pmol · mg protein^−1 · min^−1; in series [6], 41.5 ± 5.2 pmol · mg protein^−1 · min^−1.

B2: OATP2B1 (Homo sapiens) (protein)
chain: T3 sequence (O94956 1-709)
notes: expressed in transfected cells; host or cells: MDCKII (canine kidney) ABCC2 single-transfectant, further transfected with pcDNA3.1/Hygro(-)-OATP2B1
As to B2, in series [5] (other: cell line ABCC2-OATP2B1), the Km is 0.7 ± 0.3 µM and the Vmax is on record as 23.0 ± 2.6 pmol · mg protein^−1 · min^−1. For the same molecule, the Km in series [7] was 3.4 µM.
